Target: T1, human adenosine A2A receptor (Homo sapiens, UniProt P29274)
T1 construct: expressed in transfected cells; host or cells: CHO cells, Semliki Forest virus expression system; washed membrane preparation
T1 sequence (P29274 whole entry): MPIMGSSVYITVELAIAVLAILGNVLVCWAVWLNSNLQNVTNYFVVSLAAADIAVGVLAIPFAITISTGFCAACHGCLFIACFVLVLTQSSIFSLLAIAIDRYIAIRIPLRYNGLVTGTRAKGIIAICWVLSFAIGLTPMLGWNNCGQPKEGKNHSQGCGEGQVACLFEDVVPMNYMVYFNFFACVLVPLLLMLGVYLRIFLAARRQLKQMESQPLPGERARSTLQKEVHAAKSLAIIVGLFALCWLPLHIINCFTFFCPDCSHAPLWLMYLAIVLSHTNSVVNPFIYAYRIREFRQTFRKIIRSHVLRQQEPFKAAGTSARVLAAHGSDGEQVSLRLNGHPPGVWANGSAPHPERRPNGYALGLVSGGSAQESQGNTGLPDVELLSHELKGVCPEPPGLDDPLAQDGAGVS
Experiment: [3H]-SCH-58261 binding assay at the human adenosine A2A receptor
Conditions: [3H]-SCH-58261 (1 nM), membranes of CHO cells recombinantly expressing the human A2A receptor; Ki by Cheng-Prussoff; read-out: hA2ApKi (converted)
Method: Human Adenosine A2A Receptor
The human adenosine A2A receptor was recombinantly expressed in chinese hamster ovary (CHO) cells using the semliki forest virus expression system. Cells were harvested, washed twice by centrifugation, homogenised and again washed by centrifugation. The final washed membrane pellet was suspended in a Tris (50 mM) buffer containing 120 mM NaCl, […] and 10 mM MgCl2 (pH 7.4) (buffer A). The [^3H]-SCH-58261 (Dionisotti et al., 1997, Br J Pharmacol 121, 353; 1 nM) binding assay was carried out in 96-well plates in the presence of 2.5 μg of membrane protein, 0.5 mg of Ysi-poly-1-lysine SPA beads io and 0.1U adenosine deaminase in a final volume of 200 μl of buffer A. Non-specific binding was defined using xanthine amine congener (XAC; 2 μM). Compounds were tested at 10 concentrations from 10 μM-0.3 nM. All assays were conducted in duplicate and repeated at least two times. Assay plates were incubated for lhour at room temperature before centrifugation and then bound ligand determined using a Packard Topcount scintillation counter. IC50 values were calculated using a non-linear curve fitting program and Ki values calculated using the Cheng-Prussoff equation.
In the case of `Cc1cccc(-c2cc(N)n3nc(C4=CCCO4)nc3c2)c1` [2-(4,5-Dihydro-furan-2-yl)-7-m-tolyl-[1,2,4]triazolo[1,5-a]pyridin-5-ylamine], the Ki is reported as 31.6 nM. For `Cc1cc(-c2cc(N)n3nc(-c4ccccn4)nc3c2)ccn1` [7-(2-Methyl-pyridin-4-yl)-2-pyridin-2-yl-[1,2,4]triazolo[1,5-a]pyridin-5-ylamine], the Ki was 31.6 nM. Work on `Nc1cc(-c2ccc(Cl)c(Cl)c2)cc2nc(C3=CCCO3)nn12` [7-(3,4-Dichloro-phenyl)-2-(4,5-dihydro-furan-2-yl)-[1,2,4]triazolo[1,5-a]pyridin-5-ylamine] yielded a Ki of 7.94 nM. Molecule `Nc1cc(-c2ccnc(F)c2)cc2nc(-c3ccco3)nn12` [7-(2-Fluoro-pyridin-4-yl)-2-furan-2-yl-[1,2,4]triazolo[1,5-a]pyridin-5-ylamine] has a Ki of 15.8 nM. Molecule `COc1ccc(-c2cc(N)n3nc(-c4ccco4)nc3c2)cc1OC` [7-(3,4-Dimethoxy-phenyl)-2-furan-2-yl-[1,2,4]triazolo[1,5-a]pyridin-5-ylamine] has a Ki of 25.1 nM. For `COc1ccc(-c2cc(N)n3nc(-c4ccco4)nc3c2)cn1` [2-Furan-2-yl-7-(6-methoxy-pyridin-3-yl)-[1,2,4]triazolo[1,5-a]pyridin-5-ylamine], the Ki was 12.6 nM. `CCc1cc(-c2cc(N)n3nc(-c4ccccn4)nc3c2)ccn1` [7-(2-Ethyl-pyridin-4-yl)-2-pyridin-2-yl-[1,2,4]triazolo[1,5-a]pyridin-5-ylamine] gave a Ki of 7.94 nM. `Nc1cc(-c2cccc(F)c2)cc2nc(C3=CCCO3)nn12` [2-(4,5-Dihydro-furan-2-yl)-7-(3-fluoro-phenyl)-[1,2,4]triazolo[1,5-a]pyridin-5-ylamine] showed a Ki of 25.1 nM. `Cc1cccc(-c2cc(N)n3nc(-c4ccco4)nc3c2)c1` [2-Furan-2-yl-7-m-tolyl-[1,2,4]triazolo[1,5-a]pyridin-5-ylamine] gave a Ki of 10 nM.

Test system: not given
Experiment: not given
Conditions: not given
With `Nc1cc(-c2cc(Cl)cc(Cl)c2)cc2nc(-c3ccco3)nn12` [Example 5, 7-(3,5-Dichloro-phenyl)-2-furan-2-yl-[1,2,4]triazolo[1,5-a]pyridin-5-ylamine] the melting point was 257 to 260 °C. Molecule `Cc1cc(-c2cc(N)n3nc(-c4ccco4)nc3c2)ccn1` [Example 7, 2-Furan-2-yl-7-(2-methyl-pyridin-4-yl)-[1,2,4]triazolo[1,5-a]pyridin-5-ylamine] has a melting point of 100 to 101 °C. In the case of `CCc1cc(-c2cc(N)n3nc(-c4ccco4)nc3c2)ccn1` [Example 8, 7-(2-Ethyl-pyridin-4-yl)-2-furan-2-yl-[1,2,4]triazolo[1,5-a]pyridin-5-ylamine], the melting point is reported as 184 to 186 °C. Molecule `Nc1cc(-c2ccccc2)cc2nc(-c3ccccc3)nn12` [Example 25, 2,7-Diphenyl-[1,2,4]triazolo[1,5-a]pyridin-5-ylamine] has a melting point of 214 to 216 °C. Work on `Cc1cc(-c2nc3cc(-c4ccncc4)cc(N)n3n2)oc1C` [Example 16, 2-(4,5-Dimethyl-furan-2-yl)-7-pyridin-4-yl-[1,2,4]triazolo[1,5-a]pyridin-5-ylamine] yielded a melting point of 275 to 277 °C. Work on `Nc1cc(-c2cccnc2)cc2nc(-c3ccccc3)nn12` [Example 24, 2-Phenyl-7-pyridin-3-yl-[1,2,4]triazolo[1,5-a]pyridin-5-ylamine] yielded a melting point of 201 to 203 °C. `Nc1cc(-c2ccncc2)cc2nc(-c3ccccc3)nn12` [Example 22, 2-Phenyl-7-pyridin-4-yl-[1,2,4]triazolo[1,5-a]pyridin-5-ylamine] gave a melting point of 207 to 210 °C. Molecule `Nc1cc(-c2ccccn2)cc2nc(-c3ccccc3)nn12` [Example 23, 2-Phenyl-7-pyridin-2-yl-[1,2,4]triazolo[1,5-a]pyridin-5-ylamine] has a melting point of 278 to 280 °C.
